This is an account of results in US9163042B2, “Prodrugs of pyridone amides useful as modulators of sodium channels” (VERTEX PHARMACEUTICALS INCORPORATED, priority 2013, dated 2015).

Where two headings read alike, the source gives them in different places.

One data set deals with human Nav1.8 (Homo sapiens (Human), UniProt Q9Y5Y9). As to the kind of experiment: E-VIPR optical membrane potential assay with electrical stimulation (NaV1.8 IC50 activity). The class given is cell-based. The text has this: Sodium channels are voltage-dependent proteins that can be activated by inducing membrane voltage changes by applying electric fields. The electrical stimulation instrument and methods of use are described in Ion Channel Assay Methods PCT/US01/21652, herein incorporated by reference and are referred to as E-VIPR. The instrument comprises a microtiter plate handler, an optical system for exciting the coumarin dye while simultaneously recording the coumarin and oxonol emissions, a waveform generator, a current- or voltage-controlled amplifier, and a device for inserting electrodes in well. Under integrated computer control, this instrument passes user-programmed electrical stimulus protocols to cells within the wells of the microtiter plate.
24 hours before the assay on E-VIPR, HEK cells expressing human Nav1.8 were seeded in 384-well poly-lysine coated plates at 15,000-20,000 cells per well. […] Cells were grown in vented cap flasks, in 90% humidity and 5% CO2.
1) Pre-spotted compounds (in neat DMSO) into compound plates. […] Final compound plate volume was 80 μL (80-fold intermediate dilution from 1 μL DMSO spot; 160-fold final dilution after transfer to cell plate).
2) Prepared Hexyl Dye Solution.
3) Prepared cell plates. On the day of the assay, medium was aspirated and cells were washed three times with 100 μL of Bath1 Solution, maintaining 25 μL residual volume in each well.
4) Dispensed 25 μL per well of Hexyl Dye Solution into cell plates. Incubated for 20-35 minutes at room temp or ambient conditions.
5) Dispensed 80 μL per well of Bath1 into compound plates. Acid Yellow-17 (1 mM) was added and Potassium Chloride was altered from 4.5 to 20 mM depending on the NaV subtype and assay sensitivity.
6) Washed cell plates three times with 100 μL per well of Bath1, leaving 25 μL of residual volume. […] Incubated for 20-35 minutes at room temp/ambient condition.
7) Read Plate on E-VIPR. […] A pre-stimulus recording was performed for 0.5 seconds to obtain the un-stimulated intensities baseline. The stimulatory waveform was followed by 0.5 seconds of post-stimulation recording to examine the relaxation to the resting state.
Data was analyzed and reported as normalized ratios of emission intensities measured in the 460 nm and 580 nm channels. The response as a function of time was reported as the ratios obtained using the following formula: […]
The data was further reduced by calculating the initial (Ri) and final (Rf) ratios. These were the average ratio values during part or all of the pre-stimulation period, and during sample points during the stimulation period. The response to the stimulus R=Rf/Ri was then calculated and reported as a function of time.
Control responses were obtained by performing assays in the presence of a compound with the desired properties (positive control), such as tetracaine, and in the absence of pharmacological agents (negative control). Responses to the negative (N) and positive (P) controls were calculated as above.

A short description of data set [1]: Rat IV pharmacokinetic study. The settings on record: Sprague Dawley, male rat, single IV bolus 1 mg/kg of compound 9, DMI vehicle, analyte 9a in plasma; for AUC: male, rat, plasma, iv, 1 mg/kg. The class given is in vivo, Sprague Dawley rats. Here is the method: (§1) Sample Analysis. […] Before extraction, plasma samples were diluted using blank plasma at an appropriate dilution factor, as necessary, depending on the dose level. […] After centrifugation, the supernatant extract (10 μL) was injected onto the LC/MS/MS system. The HPLC system included a Phenomenex Synergy Kinetix C8 column, 2.6 micron, 2.0 mm diameter×75 mm long eluted with a gradient mobile phase consisting of 0.1% formic acid in water or in acetonitrile.
(§2) The analytes were detected by MS/MS with Electrospray Ionization (ESI) in the mode of multiple reaction monitoring (MRM). […] The intra-day and inter-day assay accuracy was within 20% of the nominal values. The intra- and inter-day assay variability was ≦20%.
(§3) Pharmacokinetic Data Analysis.
(§4) Key pharmacokinetic parameters such as AUCall, AUCextra, Cmax, tmax, Cl, Vss and t1/2 were determined.
(§5) Statistical Data Analysis. Descriptive statistical data of pharmacokinetic parameters were calculated, including the mean, standard deviation (SD), using Watson LIMS version 7.4 SP3 or Microsoft Excel 2000.
Male Sprague Dawley rats (n=3) were administered a single nominal IV bolus dose of 1 mg/kg of compound 9 via a jugular vein cannula. […] Animals had free access to food and water before and after dosing. Blood samples (approximately 0.25 mL each) were collected via a carotid artery catheter prior to dosing and at 5 min, 10 min, 0.25, 0.5, 1, 2, 4, 8, 12, 24 hours post dose. Each blood sample was collected into a tube that was kept on wet ice and contained potassium EDTA as the anticoagulant. Plasma was separated and stored at approximately −70° C. until analysis.
Plasma concentration vs. time data were subjected to noncompartmental pharmacokinetic (PK) analysis.

The nature of the next data set: Aqueous solubility study. The data set is classed as physicochemical. The note with it: for solubility at 24 h: thermodynamic from solid. The procedure:
The aqueous solubility of compound 9 and 9a were determined according to the following procedure. Solubility data was determined at ambient conditions by equilibrating the compound with water on a shaking bed for 24 hours, followed by centrifugation and separation of the saturated solutions. The pH value of each media was measured before centrifugation, and the saturated solutions were assayed by HPLC.

Data set [2] in a line: Rat oral pharmacokinetic study. The settings on record: Sprague Dawley, mean ± SD. The data set is classed as in vivo, Sprague Dawley rats. Here is the method:
as §1, §2, §3, §4, §5
Groups of male and female Sprague Dawley rats (n=3 per dose group) were administered single nominal oral doses of 10, 100, 400, 640, 1000 mg/kg (for males) and 30, 100, 300, 640, 1000 mg/kg (for females) of compound 9 by gavage. Compound 9 was formulated in either 30% PEG400 and 10% TPGS in water or 5% TPGS, 5% PVP-K30 in 50 mM Citrate, pH 5. Animals had free access to food and water before and after dosing. Blood samples (approximately 0.25 mL each) were collected via a carotid artery catheter prior to dosing and at 0.25, 0.5, 1, 2, 4, 8, 12, 24, 48 and 72 hours post dose. Each blood sample was collected into a tube that was kept on wet ice and contained potassium EDTA as the anticoagulant. Plasma was separated and stored at approximately −70° C. until analysis.

Where [3] appears, read: female rat, single PO 30 mg/kg of compound 9, 5% TPGS/5% PVP-K30/50 mM Citrate pH 5, analyte 9a in plasma.
Where [4] appears, read: female rat, single PO 100 mg/kg of compound 9, 5% TPGS/5% PVP-K30/50 mM Citrate pH 5, analyte 9a in plasma.
Where [5] appears, read: female rat, single PO 300 mg/kg of compound 9, 5% TPGS/5% PVP-K30/50 mM Citrate pH 5, analyte 9a in plasma.
[6] abbreviates: female rat, single PO 640 mg/kg of compound 9, 5% TPGS/5% PVP-K30/50 mM Citrate pH 5, analyte 9a in plasma.
[7] abbreviates: female rat, single PO 1000 mg/kg of compound 9, 5% TPGS/5% PVP-K30/50 mM Citrate pH 5, analyte 9a in plasma.
Where [8] appears, read: male rat, single PO 10 mg/kg of compound 9, 5% TPGS/5% PVP-K30/50 mM Citrate pH 5, analyte 9a in plasma.
The mark [9] stands for this setting: male rat, single PO 100 mg/kg of compound 9, 5% TPGS/5% PVP-K30/50 mM Citrate pH 5, analyte 9a in plasma.
Where [10] appears, read: male rat, single PO 400 mg/kg of compound 9, 5% TPGS/5% PVP-K30/50 mM Citrate pH 5, analyte 9a in plasma.
Where [11] appears, read: male rat, single PO 640 mg/kg of compound 9, 5% TPGS/5% PVP-K30/50 mM Citrate pH 5, analyte 9a in plasma.
Setting [12] is: male rat, single PO 1000 mg/kg of compound 9, 5% TPGS/5% PVP-K30/50 mM Citrate pH 5, analyte 9a in plasma.

Sequence of human Nav1.8 (Q9Y5Y9 whole entry): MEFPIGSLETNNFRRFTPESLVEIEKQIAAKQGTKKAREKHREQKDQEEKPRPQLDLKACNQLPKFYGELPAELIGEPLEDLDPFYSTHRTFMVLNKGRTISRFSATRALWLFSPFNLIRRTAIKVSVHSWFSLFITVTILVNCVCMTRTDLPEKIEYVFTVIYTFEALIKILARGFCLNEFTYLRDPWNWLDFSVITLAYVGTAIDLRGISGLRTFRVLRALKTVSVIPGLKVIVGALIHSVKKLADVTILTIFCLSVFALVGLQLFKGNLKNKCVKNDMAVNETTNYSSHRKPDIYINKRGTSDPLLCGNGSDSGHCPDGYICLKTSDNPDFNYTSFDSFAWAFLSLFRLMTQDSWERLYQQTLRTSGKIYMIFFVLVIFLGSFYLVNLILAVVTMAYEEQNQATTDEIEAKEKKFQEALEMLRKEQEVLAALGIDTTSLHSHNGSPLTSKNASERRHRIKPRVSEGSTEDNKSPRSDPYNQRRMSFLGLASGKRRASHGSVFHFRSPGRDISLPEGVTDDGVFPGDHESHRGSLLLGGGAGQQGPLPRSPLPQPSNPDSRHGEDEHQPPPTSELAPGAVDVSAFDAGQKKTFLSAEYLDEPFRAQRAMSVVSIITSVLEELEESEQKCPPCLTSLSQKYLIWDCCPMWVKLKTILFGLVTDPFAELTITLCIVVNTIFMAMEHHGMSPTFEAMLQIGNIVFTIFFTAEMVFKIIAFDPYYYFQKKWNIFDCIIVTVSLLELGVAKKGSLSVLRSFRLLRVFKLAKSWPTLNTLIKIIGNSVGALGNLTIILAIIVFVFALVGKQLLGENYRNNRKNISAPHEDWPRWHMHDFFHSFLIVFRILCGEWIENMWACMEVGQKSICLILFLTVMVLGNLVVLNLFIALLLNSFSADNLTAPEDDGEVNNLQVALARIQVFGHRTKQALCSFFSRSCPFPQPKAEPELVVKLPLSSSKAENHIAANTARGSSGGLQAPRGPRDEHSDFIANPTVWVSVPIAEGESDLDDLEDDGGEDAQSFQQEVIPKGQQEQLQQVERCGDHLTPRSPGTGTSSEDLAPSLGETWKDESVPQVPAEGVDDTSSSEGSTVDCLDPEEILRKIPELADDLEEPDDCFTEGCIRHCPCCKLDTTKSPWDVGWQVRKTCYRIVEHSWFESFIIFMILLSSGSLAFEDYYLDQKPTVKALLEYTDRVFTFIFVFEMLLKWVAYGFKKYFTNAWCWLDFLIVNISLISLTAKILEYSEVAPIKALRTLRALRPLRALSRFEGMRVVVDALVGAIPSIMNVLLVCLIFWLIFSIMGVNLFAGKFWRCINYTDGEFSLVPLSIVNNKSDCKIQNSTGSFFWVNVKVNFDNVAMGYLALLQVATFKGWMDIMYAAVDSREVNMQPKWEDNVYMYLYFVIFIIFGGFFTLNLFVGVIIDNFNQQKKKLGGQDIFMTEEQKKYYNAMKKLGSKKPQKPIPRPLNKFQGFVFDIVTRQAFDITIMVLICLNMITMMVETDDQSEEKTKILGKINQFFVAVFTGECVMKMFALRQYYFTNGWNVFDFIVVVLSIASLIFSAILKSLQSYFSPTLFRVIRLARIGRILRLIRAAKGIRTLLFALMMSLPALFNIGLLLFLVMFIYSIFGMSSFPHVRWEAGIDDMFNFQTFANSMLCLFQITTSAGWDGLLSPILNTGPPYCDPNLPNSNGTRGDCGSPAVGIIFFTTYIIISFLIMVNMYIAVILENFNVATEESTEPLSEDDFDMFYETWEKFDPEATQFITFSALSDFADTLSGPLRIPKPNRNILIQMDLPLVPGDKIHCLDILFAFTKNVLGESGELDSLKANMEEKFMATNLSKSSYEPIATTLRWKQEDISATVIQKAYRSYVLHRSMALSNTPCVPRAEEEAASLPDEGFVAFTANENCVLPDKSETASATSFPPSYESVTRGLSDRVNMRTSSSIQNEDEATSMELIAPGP

In turn, `COc1cc(F)ccc1Oc1cc(Cl)c(Cl)cc1C(=O)Nc1ccn(COP(=O)(O)O)c(=O)c1` [Compound 1, (4-(4,5-dichloro-2-(4-fluoro-2-methoxyphenoxy)benzamido)-2-oxopyridin-1(2H)-yl)methyl dihydrogen phosphate] had an IC50 at human Nav1.8 of 4 nM.

On human Nav1.8, `COc1cc(F)ccc1Oc1cc(C(F)(F)C(F)(F)F)ccc1C(=O)Nc1ccn(COP(=O)(O)O)c(=O)c1` [Compound 2, (4-(2-(4-fluoro-2-methoxyphenoxy)-4-(perfluoroethyl)benzamido)-2-oxopyridin-1(2H)-yl)methyl dihydrogen phosphate] returned an IC50 of 28 nM.

Consider `Cc1cc(F)ccc1Oc1cc(C(F)(F)F)ccc1C(=O)Nc1cc[nH]c(=O)c1` [Compound 9a, 2-(4-fluoro-2-methylphenoxy)-N-(2-oxo-1,2-dihydropyridin-4-yl)-4-(trifluoromethyl)benzamide], for which the C0 in data set [1] came to 259 ng/mL. Moreover, the clearance in data set [1] was 18.7 mL/min/kg. In addition, in data set [1] (read-out: Vss), the Vd was found to be 3.77 L/kg. Also, the half-life in data set [1] (read-out: t½ (converted)) is 2.43 h; in data set [2] (setting [3]), 10.8 ± 1.6 h; in data set [2] (setting [4]), 9.15 ± 0.44 h; in data set [2] (setting [5]), 13.1 ± 2.65 h; in data set [2] (setting [6]), 7.51 ± 1.86 h; in data set [2] (setting [7]) it was 7.9 ± 3.37 h. In addition, the half-life in data set [2] (setting [8]) was 3.8 ± 0.73 h; in data set [2] (setting [9]) it was 5.36 ± 2.3 h; in data set [2] (setting [10]) it was 5.2 ± 1.96 h; in data set [2] (setting [11]) it was 6.91 ± 1.84 h; in data set [2] (setting [12]), 7.95 ± 2.24 h. The AUC in data set [1] (read-out: AUCall) was determined as 592 ng·h/mL; in data set [1] (read-out: AUCextra), 611 ng·h/mL; in data set [2] (setting [3]) it was 99200 ± 6880 ng·h/mL; in data set [2] (setting [4]), 187000 ± 17500 ng·h/mL; in data set [2] (setting [5]), 282000 ± 74200 ng·h/mL; in data set [2] (setting [6]), 324000 ± 32800 ng·h/mL. Further, the AUC in data set [2] (setting [7]) was 345000 ± 69600 ng·h/mL; in data set [2] (setting [8]) it was 3600 ± 240 ng·h/mL; in data set [2] (setting [9]) it was 24800 ± 4600 ng·h/mL; in data set [2] (setting [10]), 68600 ± 25700 ng·h/mL; in data set [2] (setting [11]), 74900 ± 24100 ng·h/mL; in data set [2] (setting [12]), 88500 ± 41000 ng·h/mL. Further, the solubility at 24 h is < 1 µg/mL in “Aqueous solubility study” (aqueous medium, simulated gastric fluid, pH 1.2, crystalline, ambient conditions, 24 hours, read-out: Solubility) and < 1 µg/mL in “Aqueous solubility study” (water, pH 6.0, read-out: aqueous solubility in water). Also, the Solubility in “Aqueous solubility study” (pH 6.0, crystalline, ambient conditions, 24 hours) is <1 µg/mL. The Cmax was 3330 ± 430 ng/mL in data set [2] (setting [3]); 5820 ± 580 ng/mL in data set [2] (setting [4]); 7900 ± 1300 ng/mL in data set [2] (setting [5]); 10000 ± 1450 ng/mL in data set [2] (setting [6]); 10600 ± 3580 ng/mL in data set [2] (setting [7]); 290 ± 50 ng/mL in data set [2] (setting [8]). Further, the Cmax in data set [2] (setting [9]) came out at 1670 ± 190 ng/mL; in data set [2] (setting [10]), 3740 ± 1250 ng/mL; in data set [2] (setting [11]), 4760 ± 980 ng/mL; in data set [2] (setting [12]), 4540 ± 910 ng/mL. The Tmax worked out at 6.67 ± 2.31 h in data set [2] (setting [3]); 12 h in data set [2] (setting [4]); 10.7 ± 2.31 h in data set [2] (setting [5]); 9.33 ± 2.31 h in data set [2] (setting [6]); 13.3 ± 9.24 h in data set [2] (setting [7]); 5.33 ± 2.31 h in data set [2] (setting [8]). The Tmax amounted to 8 h in data set [2] (setting [9]), 5.67 ± 4.04 h in data set [2] (setting [10]), 6 ± 3.46 h in data set [2] (setting [11]) and 6.67 ± 2.31 h in data set [2] (setting [12]).

Consider `Cc1cc(F)ccc1Oc1ccc(C(F)(F)F)cc1C(=O)Nc1ccn(COP(=O)(O)O)c(=O)c1` [Compound 10, (4-(2-(4-fluoro-2-methylphenoxy)-5-(trifluoromethyl)benzamido)-2-oxopyridin-1(2H)-yl)methyl dihydrogen phosphate], for which the IC50 against human Nav1.8 turned out to be 86 nM.

Compound `Cc1cc(F)ccc1Oc1cc(Cl)ccc1C(=O)Nc1ccn(COP(=O)(O)O)c(=O)c1` [Compound 13, (4-(4-chloro-2-(4-fluoro-2-methylphenoxy)benzamido)-2-oxopyridin-1(2H)-yl)methyl dihydrogen phosphate] displayed an IC50 at human Nav1.8 of 329 nM.

With `O=C(Nc1ccn(COP(=O)(O)O)c(=O)c1)c1cc(C(F)(F)F)ccc1Oc1ccc(F)cc1` [Compound 18, (4-(2-(4-fluorophenoxy)-5-(trifluoromethyl)benzamido)-2-oxopyridin-1(2H)-yl)methyl dihydrogen phosphate], on human Nav1.8, the IC50 was 457 nM.

For orientation: IC50 means the concentration that gives 50% inhibition. The low end stands for higher potency, the high end for lower potency. As a reminder, the clearance is a measure of how efficiently the substance is removed, as volume per time. As usually defined, the solubility is the concentration that dissolves in the medium under given conditions. One may read the Solubility as the dissolved amount per volume that the medium holds. A low value points to a poorly soluble substance. As a reminder, the Cmax is the highest concentration seen after dosing. One may read the Tmax as the time at which the peak concentration occurs.
